The results in this text go back to patent US20200108074A1, “COMBINATIONS OF CHK1- AND WEE1- INHIBITORS” (Seattle Genetics, Inc., priority 2017, published 2020).

Structures are written as SMILES. Entries after “also recorded” stand apart in the source; their conditions may differ. Where only a bound is given, the exact number is not on record here.

The test system of series [1] is Jeko-1 cells. The experiment in a line: Jeko-1 MCL tumor xenograft model, combination with Wee1 inhibitor. Particulars: Compound 1 7.5 mg/kg, AZD-1775 15 mg/kg, or both. The series is classed as in vivo. The method, then:
A Jeko-1 mantle cell lymphoma (MCL) tumor xenograft model was used to study the combined effects of Chk1 inhibition with Compound 1 and a Wee1 inhibitor. Jeko-1 cells were inoculated subcutaneously into the flanks of CB17.SCID mice. Once tumors reached a volume of about 200 mm^3, mice were randomized into study groups (n=10 per group). […] A negative control group was included wherein the mice were treated with vehicle only.

The target in series [2] is T1, Chk1 (Homo sapiens, UniProt O14757).
T1 sequence (O14757 1-476): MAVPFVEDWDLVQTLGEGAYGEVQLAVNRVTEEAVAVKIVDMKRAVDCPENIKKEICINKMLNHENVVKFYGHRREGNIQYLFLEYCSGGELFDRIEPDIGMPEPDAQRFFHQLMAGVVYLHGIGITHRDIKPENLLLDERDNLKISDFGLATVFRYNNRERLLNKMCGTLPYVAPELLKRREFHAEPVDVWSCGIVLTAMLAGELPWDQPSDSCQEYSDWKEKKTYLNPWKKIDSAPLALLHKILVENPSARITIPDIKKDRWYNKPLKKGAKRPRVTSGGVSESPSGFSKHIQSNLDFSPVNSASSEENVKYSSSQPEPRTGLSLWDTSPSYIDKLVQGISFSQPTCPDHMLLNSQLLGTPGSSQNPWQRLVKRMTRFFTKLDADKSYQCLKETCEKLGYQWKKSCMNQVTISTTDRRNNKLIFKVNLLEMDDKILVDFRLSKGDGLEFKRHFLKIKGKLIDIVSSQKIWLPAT
Kind of series: Chk1 enzymatic assay. Type of series: biochemical. Particulars: 10 μM [γ-33P]-ATP, 20 μM peptide substrate (SEQ ID NO:1); read-out: IC50, enzymatic potency against Chk1.

Another series has as its system CYP. The experiment in a line: CYP inhibition. Type of series: in vitro ADME.
In a further series the test system is MV-411 cells. The experiment in a line: MV-411 AML tumor xenograft model. The series is classed as in vivo. Particulars: single agent. The source says: An MV-411 tumor xenograft model was used to test the ability of Compound 1 to inhibit AML tumor growth in vivo. MV-411 cells were mixed with Matrigel in a 1:1 ratio and injected subcutaneously into the right flanks of female NOD.SCID mice. Once tumors reached a volume of about 100 to 200 mm^3, mice were randomized into study groups (n=10 per group) and dosed with Compound 1 by oral gavage.

A further series concerns Maver-1 cells. The experiment in a line: Maver-1 MCL xenograft model, single agent. As to conditions: mouse, in vivo. The method, then: (§1) The effects of Compound 1 were assessed in two different mantle cell lymphoma (MCL) xenograft models. Jeko-1 and or Maver-1 cells were inoculated subcutaneously in the flanks of CB17.SCID (for Jeko-1 cells) or athymic nude (for Maver-1 cells) mice. Once the tumors reached a volume of about 200 mm^3, the mice were randomized into study groups (n=10 per group). Mice were treated with Compound 1 by oral gavage, or with only vehicle as a negative control. In one treatment group, Compound 1 was administered once per day for 21 days. In the other treatment group, Compound 1 was administered twice per day for three cycles, wherein each cycle constituted treatment for three consecutive days, followed by no treatment for four consecutive days.

The subject of the next series is NCI-H727 tumor cells. The experiment in a line: NCI-H727 NSCLC tumor xenograft model, single agent. The series is classed as in vivo. As to conditions: treated mice. As to the method:
(§2) In order to assess the in vivo efficacy of Compound 1, two different NSCLC xenograft models were used. SK-MES-1 or NCI-H727 tumor cells were inoculated subcutaneously in the flanks of athymic nude mice. Once tumors reached a volume of about 200 mm^3, mice were randomized into study groups (n=10 per group). Mice were treated by oral gavage with Compound 1 at a dose of 12.5, 25, or 50 mg/kg once per day. A negative control group was also included, wherein the animals were administered vehicle only.

Series [3] has as its system Jeko-1 cells. The experiment in a line: Jeko-1 MCL xenograft model, single agent. As to conditions: mouse, in vivo. The method, then: as §1
The test system of series [4] is solid and hematological tumor-derived cell lines. The experiment in a line: Large cell line panel proliferation screens (CellTiter-Glo). As to conditions: in vitro; lower end printed in nM, upper end in μM; read-out: IC50 values, single agent, large cell line panels. The series is classed as cell-based. As to the method:
A panel of 232 carcinoma derived cell lines was screened in a high-throughput proliferation assay using dilutions of Compound 1 or cisplatin. Cell lines were treated with serial half-log dilutions of Compound 1 or cisplatin using a starting concentration of 30 μM to achieve 9 dose levels and assayed 72 hours later for proliferation using a CellTiter-Glo® Assay (Promega). IC50 (EC50) values were calculated by fitting the dose-response data using a nonlinear regression model.
A panel of about 70 hematopoietic cell lines was screened for sensitivity to Compound 1 in a 72-hour proliferation assay (CrownBio Omnipanel). Cell lines that were screened included those representing anaplastic large cell lymphoma (ALCL), acute myeloid leukemia (AML), B-cell acute lymphoblastic leukemia (B-ALL), Burkitt lymphoma, chronic lymphocytic leukemia (CLL), chronic myelogenous leukemia (CML), mantle cell lymphoma (MCL), multiple myeloma (MM), acute promyelocytic leukemia (PML), and T-cell acute lymphoblastic leukemia (T-ALL).
In general terms: ATP-based viability assays read luminescence as a measure of living cells.

In a further series the test system is SK-MES-1 tumor cells. Kind of series: SK-MES-1 NSCLC tumor xenograft model. The series is classed as in vivo. As to conditions: treated mice. As to the method: as §2
Another series addresses Chk2 (Homo sapiens, UniProt O96017). Kind of series: Kinase panel selectivity, IC50 relative to Chk1. Type of series: biochemical. The method, then:
Compound 1 was screened against a panel of 120 kinases, including those represented in FIG. 3A, using a 1 μM ATP concentration. The IC50 values, measured at the ATP Km for each kinase, are represented relative to Chk1 in FIG. 3B. Cellular IC50 values were derived from signal transduction assays in relevant cell lines using phosphor-epitope-specific antibodies.

Another series is described as follows: Metabolic stability. The series is classed as in vitro ADME.
In the next series the target is hERG (Homo sapiens, UniProt Q12809). Kind of series: hERG inhibition.
A short description of another series: Efflux ratio. Type of series: in vitro ADME.
A short description of series [5]: GLP cardiovascular safety study. The series is classed as in vivo. As to conditions: QTc interval, left ventricular pressure, contractility end points. An excerpt: 7-day repeat dose tolerability studies have been completed in mice, rats, and cynomolgus monkeys, and there have been no findings in a cynomolgus monkey GLP cardiovascular safety study (including corrected QT (QTc) interval, left ventricular pressure (LVP), and contractility end points). Compound 1 is active as a single agent, but is also active in combination with chemotherapeutic agents and Wee1 inhibitors.

Series [6] concerns the target T1, Chk1. Kind of series: Cellular Chk1 assay, serine 296 phospho-epitope immunoblot in HT-29 cells. Type of series: cell-based. As to conditions: HT-29 colon carcinoma cells, 18-hour assay, anti-Chk1 serine 296 phospho-epitope antibody. The method, then: Cellular Chk1 was assayed using HT-29 colon carcinoma cells in an 18-hour assay by immunoblotting with a rabbit anti-Chk1 serine 296 phosphor-epitope antibody (obtained from Cell Signaling Technology Inc.).

Broadly, the IC50 is the concentration at which inhibition is half-maximal.

Sequence of Chk2 (O96017 whole entry, species assumed): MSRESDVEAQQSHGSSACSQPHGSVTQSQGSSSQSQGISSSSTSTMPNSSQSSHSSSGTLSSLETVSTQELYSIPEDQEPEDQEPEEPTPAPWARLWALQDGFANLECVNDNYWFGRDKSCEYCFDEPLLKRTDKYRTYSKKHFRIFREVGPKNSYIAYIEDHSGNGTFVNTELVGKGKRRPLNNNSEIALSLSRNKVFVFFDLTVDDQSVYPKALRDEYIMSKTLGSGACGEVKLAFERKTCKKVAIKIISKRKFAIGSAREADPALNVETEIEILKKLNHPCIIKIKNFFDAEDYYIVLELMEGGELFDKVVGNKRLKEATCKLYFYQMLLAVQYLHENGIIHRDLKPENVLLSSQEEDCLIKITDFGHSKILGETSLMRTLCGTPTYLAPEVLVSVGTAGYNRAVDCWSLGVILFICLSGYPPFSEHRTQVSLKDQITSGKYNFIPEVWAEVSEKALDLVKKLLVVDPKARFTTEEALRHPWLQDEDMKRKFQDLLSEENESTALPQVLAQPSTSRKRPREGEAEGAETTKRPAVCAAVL
Sequence of hERG (Q12809 whole entry): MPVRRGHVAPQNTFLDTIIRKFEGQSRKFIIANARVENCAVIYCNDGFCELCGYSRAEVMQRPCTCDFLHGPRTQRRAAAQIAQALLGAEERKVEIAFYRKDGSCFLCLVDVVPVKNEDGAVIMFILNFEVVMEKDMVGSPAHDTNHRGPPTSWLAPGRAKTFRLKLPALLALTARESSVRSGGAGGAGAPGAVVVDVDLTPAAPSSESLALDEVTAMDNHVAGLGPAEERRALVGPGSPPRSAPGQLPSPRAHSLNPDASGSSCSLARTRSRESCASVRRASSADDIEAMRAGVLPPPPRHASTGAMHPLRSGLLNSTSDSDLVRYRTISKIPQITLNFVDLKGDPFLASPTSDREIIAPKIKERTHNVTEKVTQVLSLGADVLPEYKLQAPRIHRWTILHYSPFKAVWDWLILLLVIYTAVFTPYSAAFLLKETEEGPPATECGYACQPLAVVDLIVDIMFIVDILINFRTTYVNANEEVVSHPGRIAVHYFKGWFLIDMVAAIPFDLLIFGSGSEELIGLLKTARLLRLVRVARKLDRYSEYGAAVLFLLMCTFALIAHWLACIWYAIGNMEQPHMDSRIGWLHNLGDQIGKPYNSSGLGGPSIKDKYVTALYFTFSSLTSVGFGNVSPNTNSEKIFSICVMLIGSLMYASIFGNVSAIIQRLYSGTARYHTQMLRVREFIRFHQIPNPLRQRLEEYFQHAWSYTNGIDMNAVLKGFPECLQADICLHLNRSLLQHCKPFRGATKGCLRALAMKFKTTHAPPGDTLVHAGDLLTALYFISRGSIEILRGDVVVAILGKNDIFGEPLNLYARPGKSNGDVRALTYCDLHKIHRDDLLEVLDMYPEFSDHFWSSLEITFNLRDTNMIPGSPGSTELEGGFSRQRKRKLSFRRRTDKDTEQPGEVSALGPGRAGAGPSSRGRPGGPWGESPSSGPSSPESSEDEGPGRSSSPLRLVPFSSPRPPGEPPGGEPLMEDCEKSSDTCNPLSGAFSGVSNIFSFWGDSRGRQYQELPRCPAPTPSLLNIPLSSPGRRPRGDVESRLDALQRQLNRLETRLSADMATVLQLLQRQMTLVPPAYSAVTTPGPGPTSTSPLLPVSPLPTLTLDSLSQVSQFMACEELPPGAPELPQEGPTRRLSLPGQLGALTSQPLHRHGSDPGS

Regarding `C=CCn1c(=O)c2cnc(Nc3ccc(N4CCN(C)CC4)cc3)nc2n1-c1cccc(C(C)(C)O)n1` [AZD-1775, 2-allyl-1-(6-(2-hydroxypropan-2-yl)pyridin-2-yl)-6-((4-(4-methylpiperazin-1-yl)phenyl)amino)-1H-pyrazolo[3,4-d]pyrimidin-3(2H)-one, reference compound], the tumor growth entry in the series on Jeko-1 cells [1] (oral gavage once per day, three cycles of 3 days on/4 days off) was “inhibited by both agents alone”.
With `COc1cc(C2(F)CCN(C)CC2)ccc1-c1cc(Nc2cnc(C#N)cn2)n[nH]1` [Compound 1, 5-((5-(4-(4-fluoro-1-methylpiperidin-4-yl)-2-methoxyphenyl)-1H-pyrazol-3-yl)amino)pyrazine-2-carbonitrile], the concentration for half-maximal inhibition (IC50) on Chk1 [2] was 0.124 nM; in series [4], at least 30 nM; against Chk1 [6], 0.511 nM. In the series on CYP, the CYP inhibition result was “no CYP inhibition liabilities”. For the same compound, the “tolerability (body weight)” value in the series with MV-411 cells, with Maver-1 cells, with Jeko-1 cells [3] and in the series with Jeko-1 cells [1] was “well-tolerated” throughout. Also, the “effect on body weight” value in the series with NCI-H727 tumor cells and with SK-MES-1 tumor cells was “minimal effects on body weight” throughout. The “selectivity for Chk1 over Chk2” value on Chk2 is recorded as “more than 1,000 ×”. For the same compound, in the series “Metabolic stability”, the metabolic stability entry was “good”. Further, the hERG inhibition index result on hERG is “excellent”. The efflux ratio result in the series “Efflux ratio” is on record as “low”. Also, the cardiovascular safety findings result in series [5] is reported as “low risk of cardiotoxicity; also recorded: no findings”.
